Series [1] can be described thus: particle size distribution of raw material samples. The format is physicochemical. From the text:
In the present invention, D50 refers to the particle size corresponding to the cumulative volume distribution percentage of spirocyclic aryl phosphorus oxides or pharmaceutically acceptable salts thereof reaching 50% measured from a small particle size; D90 refers to the particle size corresponding to the cumulative volume distribution percentage of spirocyclic aryl phosphorus oxides or pharmaceutically acceptable salts thereof reaching 90% measured from a small particle size.

A short description of series [2]: solubility in solvents (description of the substance). The format is physicochemical. From the text: (§1) The solubility of the drug directly influences the dissolution rate of the composition containing the drug, which in turn influences the bioavailability of the pharmaceutical composition. Therefore, how to improve the dissolution rate of pharmaceutical compositions containing spirocyclic aryl phosphorus oxide in solvents other than hydrochloric acid has become an urgent problem to be solved.

Series [3] in a line: Determination of solubility in buffers at different pHs (saturated solubility by HPLC). The format is physicochemical. Particulars: for solubility at 24 h: thermodynamic from solid, 37° C. Here is the method: (§2) The solubilities of spirocyclic aryl phosphorus oxides in buffers at different pHs were determined. Nine test samples of 4 mg were each weighed and added to sample bottles of 1.5 mL, and then different solvents (0.1 mol/L HCl, 0.01 mol/L HCl, pH3.5 acetate buffer, pH4.5 acetate buffer, pH5.5 phosphate buffer, pH6.5 phosphate buffer, pH6.8 phosphate buffer, pH7.5 phosphate buffer and water) of 1 mL were added. According to the dissolution, the raw material compounds were continuously added to form a saturated solution. A magneton was added to the saturated solution and then stirred on a magnetic agitator (temperature was 37° C., away from light). After stirring for 24 hours, the samples were taken and centrifuged, and the residual solid samples in the lower layer were tested by X-ray powder diffraction (XRPD). The upper sample was filtered by a filter membrane, the final pH value of the filtrate was measured, and the saturated solubility of the compound was determined by high performance liquid chromatography (HPLC).

Series [4] has as its system other related serine, threonine and tyrosine except EGFR wild type. Put plainly: kinase selectivity. The format is biochemical. Particulars: in the detected concentration range.
Series [5] is described as follows: XRPD of residual solid in the solubility test. The format is physicochemical. The following applies: 24 hrs. Here is the method:
as §2

A short description of series [6]: hygroscopicity (description of the substance). The format is physicochemical.
From the text: as §1

The text below walks through data of patent US20240216402A1, “PHARMACEUTICAL COMPOSITION, AND PREPARATION METHOD THEREFOR AND APPLICATION THEREOF” (QILU PHARMACEUTICAL CO., LTD., priority 2021, published 2024).

Values after ≈ are worked out from the molar mass of the structure shown.

For `COc1cc(N2CCC3(CCN(C)CC3)CC2)ccc1Nc1ncc(Cl)c(Nc2ccccc2P(C)(C)=O)n1` [Sample 2], in series [1], the “Particle size D10 (μm)” value is recorded as 1.3 μm, the “Particle size D50 (μm)” value amounted to 10.1 μm and the “Particle size D90 (μm)” value is recorded as 27.1 μm.

Consider `COc1cc(N2CCC3(CCN(C)CC3)CC2)ccc1Nc1ncc(Cl)c(Nc2ccccc2P(C)(C)=O)n1` [Sample 6], for which, in series [1], the “Particle size D10 (μm)” value is 2.3 μm, the “Particle size D50 (μm)” value was found to be 18.2 μm and the “Particle size D90 (μm)” value worked out at 79.6 μm.

Regarding `COc1cc(N2CCC3(CCN(C)CC3)CC2)ccc1Nc1ncc(Cl)c(Nc2ccccc2P(C)(C)=O)n1` [Sample 1], in series [1], the “Particle size D10 (μm)” value is listed as 0.7 μm, the “Particle size D50 (μm)” value was 5.4 μm and the “Particle size D90 (μm)” value came out at 11.6 μm.

Take `COc1cc(N2CCC3(CCN(C)CC3)CC2)ccc1Nc1ncc(Cl)c(Nc2ccccc2P(C)(C)=O)n1` [Sample 5]: in series [1], the “Particle size D10 (μm)” value stood at 1.8 μm, the “Particle size D50 (μm)” value is reported as 16.1 μm and the “Particle size D90 (μm)” value stood at 69 μm.

Consider `COc1cc(N2CCC3(CCN(C)CC3)CC2)ccc1Nc1ncc(Cl)c(Nc2ccccc2P(C)(C)=O)n1` [Sample 3], for which, in series [1], the “Particle size D10 (μm)” value worked out at 1.6 μm, the “Particle size D50 (μm)” value is 13.0 μm and the “Particle size D90 (μm)” value is reported as 40.3 μm.

With `COc1cc(N2CCC3(CCN(C)CC3)CC2)ccc1Nc1ncc(Cl)c(Nc2ccccc2P(C)(C)=O)n1` [spirocyclic aryl phosphorus oxide, (2-((5-chloro-2-((2-methoxy-4-(9-methyl-3,9-diazaspiro[5.5]undecan-3-yl)phenyl)amino)pyrimidin-4-yl)amino)phenyl)dimethylphosphine oxide], the solubility (as a rule, the dissolved amount per volume that the medium holds) was “easily soluble” in series [2] (1 mol/L hydrochloric acid solution); “practically insoluble, or insoluble” in series [2] (1 mol/L sodium hydroxide solution); “slightly soluble” in series [2] (acetonitrile); “easily soluble” in series [2] (dichloromethane); “slightly soluble” in series [2] (ethanol); “sparingly soluble” in series [2] (methanol). Moreover, in series [2] (water), the solubility entry is reported as “slightly soluble”. The “Dose/solubility (mL, in 60 mg specifications)” value in series [3] (0.01 mol/L HCl (pH2.02)) stood at 8.69 mL; in series [3] (0.1 mol/L HCl (pH 1.02)), 1.12 mL; in series [3] (pH 3.5 buffer (pH 3.53)), 0.22 mL; in series [3] (pH 4.5 buffer (pH 4.49)), 0.56 mL; in series [3] (pH 5.5 buffer (pH 5.47)), 8.45 mL; in series [3] (pH 6.5 buffer (pH 6.45)), 5.41 mL. The “Dose/solubility (mL, in 60 mg specifications)” value in series [3] (pH 6.8 buffer (pH 6.83)) is listed as 16.67 mL; in series [3] (pH 7.5 buffer (pH 7.53)) it was 70.59 mL; in series [3] (water (pH 6.33)), greater than 250 mL. Further, the “Conclusions (solubility class)” value in series [3] (0.1 mol/L HCl (pH 1.02)) is on record as “soluble (10 ml to less than 30 ml)”. Moreover, the solubility at 24 h is 6900 µg/mL (≈ 12.1 mM) in series [3] (pH 2.02, simulated gastric fluid, 0.01 mol/L HCl (pH2.02)); 279000 µg/mL (≈ 491 mM) in series [3] (pH 3.5 acetate buffer, aqueous buffer, pH 3.5 buffer (pH 3.53), acetate); 108000 µg/mL (≈ 190 mM) in series [3] (pH 4.5 acetate buffer, aqueous buffer, pH 4.5 buffer (pH 4.49), acetate); 7100 µg/mL (≈ 12.5 mM) in series [3] (pH 5.5 phosphate buffer, aqueous buffer, pH 5.5 buffer (pH 5.47), phosphate); 11100 µg/mL (≈ 19.5 mM) in series [3] (pH 6.5 phosphate buffer, aqueous buffer, pH 6.5 buffer (pH 6.45), phosphate); 3600 µg/mL (≈ 6.33 mM) in series [3] (pH 6.8 phosphate buffer, aqueous buffer, pH 6.8 buffer (pH 6.83), phosphate). The solubility at 24 h is 850 µg/mL (≈ 1.49 mM) in series [3] (pH 7.5 phosphate buffer, aqueous buffer, pH 7.5 buffer (pH 7.53), phosphate); 53400 µg/mL (≈ 93.8 mM) in series [3] (simulated gastric fluid, 0.1 mol/L HCl (pH 1.02)); 60 µg/mL (≈ 0.105 mM) in series [3] (water (pH 6.33)). Also, the “inhibitory activity to other kinases” value in series [4] is “Low inhibitory activity”. Moreover, the “XRPD (crystal form of residual solid)” value in series [5] (0.01 mol/L HCl (pH2.02)), in series [5] (0.1 mol/L HCl (pH 1.02)), in series [5] (pH 3.5 buffer (pH 3.53)), in series [5] (pH 4.5 buffer (pH 4.49)), in series [5] (pH 5.5 buffer (pH 5.47)) and in series [5] (pH 6.5 buffer (pH 6.45)) was “no change” each time. The “XRPD (crystal form of residual solid)” value in series [5] (pH 6.8 buffer (pH 6.83)), in series [5] (pH 7.5 buffer (pH 7.53)) and in series [5] (water (pH 6.33)) was “no change” in each case. The hygroscopicity entry in series [6] is “almost no hygroscopicity”.

With `COc1cc(N2CCC3(CCN(C)CC3)CC2)ccc1Nc1ncc(Cl)c(Nc2ccccc2P(C)(C)=O)n1` [Sample 4], in series [1], the “Particle size D10 (μm)” value turned out to be 5.0 μm, the “Particle size D50 (μm)” value turned out to be 23.8 μm and the “Particle size D90 (μm)” value came to 62 μm.

`COc1cc(N2CCC3(CCN(C)CC3)CC2)ccc1Nc1ncc(Cl)c(Nc2ccccc2P(C)(C)=O)n1` [Sample 7]: in series [1], the “Particle size D10 (μm)” value is given as 6.8 μm, the “Particle size D50 (μm)” value is on record as 47.9 μm and the “Particle size D90 (μm)” value is reported as 122 μm.

Turning to `COc1cc(N2CCC3(CCN(C)CC3)CC2)ccc1Nc1ncc(Cl)c(Nc2ccccc2P(C)(C)=O)n1` [Sample 8], in series [1], the “Particle size D10 (μm)” value came out at 7.8 μm, the “Particle size D50 (μm)” value was 63.1 μm and the “Particle size D90 (μm)” value was 193 μm.
